Assay results: patent publication US20240398831A1, “COMPOSITIONS COMPRISING SMALL MOLECULE REGULATORS OF TUMOR IMMUNITY AND METHODS OF USING SAME” (Duke University, priority 2021, published 2024)
Like-named read-outs stand apart in the source and are kept apart here.

Columns and labels:
YuMM5.2 tumors = type: in vivo
Procedure: Tumor models and cells. The mouse B16F10 and Yumm5.2 cell lines were purchased from American Type Culture Collection (ATCC, Manassas, VA). The mouse melanoma cell line BPD6 was established from iBP as described elsewhere (Zhao et al., Immunity 2018, 48, 147-160). B16F10 and BPD6 cells were maintained in Dulbecco's Modified Eagle's Medium (DMEM) supplemented with 8% fetal bovine serum (FBS), 0.1 mM non-essential amino acids (NEAA) and 1 mM sodium pyruvate. YuMM5.2 cells were maintained in DMEM/F12 media supplemented with 10% FBS. The cells were replated 3 times/week at a confluency of 1:10 and were kept in a 37° C. incubator at 5% CO2. For subcutaneous tumor models B16F10 (5×10^4 or 1×10^5), YuMM5.2 (5×10^5), and BPD6 (5×10^5) cells were injected into the right flank of the mice. For iBP mice, tumors were induced with a single intradermal dose of 4-hydroxytamoxifen in DMSO (150 μg/mouse). Tumors were measured thrice weekly using an electronic caliper. Tumor volumes were calculated by the formula V=L×(W×W)/2. For iBP mouse tumors, volumes were calculated by the formula V=L×B×H. For tumor growth rate studies mice were euthanized when the tumors reached a maximum size of 2000 mm^3.
Ovarlectomy and subcutaneous pellet Insertion. Ovariectomy was performed as previously described (Nelson et al., Science 2013, 342, 1094-1098). Eight days prior to tumor inoculation, 7 weeks old C57BL/6J or 5 weeks old (iBP) female mice were subjected to ovariectomy or sham surgery. Mice were anesthetized in an inhalation chamber (2% Isoflurane) and maintained in half the dose of isoflurane (1%) via nose cone throughout the surgical process. Prior to surgery, mice were administered a 5 mg/kg dose of carprofen subcutaneously. The area below the ribs was shaved with an electronic razor and the skin was sterilized by rubbing with betadine and alcohol (3× alternating). A horizontal incision was made through the skin above the ovary fat pad, followed by a vertical incision through the abdominal muscle wall. The ovary was externalized and removed using a cauterizing scissors (or returned if sham). Fat pad was replaced, and muscle walls were opposed and sutured (1-2 stitches). Following suturing, 1 drop of bupivacaine (0.25%) was added on top of the incision site. The skin was opposed, and a wound clip was placed on the incision site. This was repeated for the other ovary. The mouse was then removed from anesthesia and kept in a clean cage and monitored until conscious. The mice were monitored for recovery for 10 days.
Single cell isolation from tumors. Tumors were isolated, minced on a petri dish in media (DMEM+5% FBS), and then enzymatically digested by the addition of 100 μg/mL DNase I (D5025-150KU, Sigma-Aldrich) and 1 mg/mL collagenase (Collagenase A, Cat #10103586001, Sigma-Aldrich) for 30 mins-45 mins. For iBP models, isolated tumors were sliced into large chunks and subjected to mechanical digestion in a gentleMACS Dissociator for 30 seconds twice. Following this, tumors were digested with an enzyme cocktail containing DNase I, collagenase, and hyaluronidase (100 μg/mL) (H6254, Sigma-Aldrich) for 40 mins following a second round of mechanical digestion for 30 seconds (twice). The cells were then filtered through a 40 μm strainer to produce single cell suspensions and the enzymes were diluted by addition of additional media then spun down to remove media. Red blood cells were lysed with the addition of ACK lysis buffer (Cat #A1049201. ThermoFisher Scientific) for 4 mins at room temperature. Following red blood cell lysis, cells were washed with PBS before proceeding to flow cytometry staining or magnetic bead-based isolation.
Flow cytometry staining. Single cells suspensions (10^6 cells in 50 μL) were incubated with Live/dead fixable dead cell stain in PBS for 10 mins at 4° C. Cells were spun down at 1000×g and were incubated with anti-CD16/32 (Catalog #14-0161-85, ThermoFisher Scientific) in flow buffer (10 gms BSA in 1 L PBS+sodium azide) for 15 mins. […]

[1] = test system: T cells co-cultured with BMDM; test: T cells co-cultured with bone marrow-derived macrophages (BMDM) polarized to M2; type: cell-based, mouse; settings: for proliferation of T cells (CFSE dilution): macrophages differentiated in NM
Procedure: In vitro bone marrow-derived macrophage differentiation. For this purpose, bone marrow cells were aseptically collected from 8-10 weeks old female C57BL/6J mice by crushing the femurs and tibias in PBS, […] and 2 mM EDTA. Cells were added to ACK buffer to lyse the red blood cells for 2 mins with intermediate vortexing. The solution was filtered through a 40 μm strainer to remove bone fragments. To differentiate bone marrow cells to macrophages the cells were plated in DMEM media (100%) or DMEM media (70%) and 30% tumor-conditioned media, supplemented with 10% heat-inactivated charcoal-stripped serum in the presence of 30 ng/mL MCSF (Cat #312-02, PeproTech). After 3 days cells were supplemented with 50% of respective fresh media. On day 6 the media was removed and replaced with fresh media. […] For polarization, cells were further treated with LIPS (100 ng/mL, Cat L2630, Sigma Aldrich) and IFNγ (20 ng/mL, Cat #315-05, PeproTech) (24 hr) for M1 polarization or IL4 (10 ng/mL, cat #214-14, PeproTech) for M2 polarization.
T cell proliferation assay and staining. CD3+ T cells were isolated from the spleens of C57BL/6J or P-mel mice with magnetic bead-based T cell isolation kit (Cat #19851, StemCell Technologies). T cells from naïve mice were stained with 5 μM CFSE (Cat #C34554, ThermoFisher Scientific) for 5 minutes in PBS+5% CFS with rapid vortexing following which the cells were washed twice with PBS. Stained T cells were then counted and plated in 96-well plates coated with anti-CD3 antibody (0.5 μg/mL, Cat #19851, ThermoFisher Scientific) anti-CD28 antibody (1 μg/mL, Cat #16-0281-86, Thermo Fisher Scientific) at desired density (250,000 T cells/50,000 CD11b or BMDM) in the presence of IL2 (50 ng/mL) (Cat #212-12, PeproTech). 72 hr after plating the cells were incubated with protein transport inhibitors brefeldin (Cat #00-4506-51, Thermo Fisher Scientific) and monensin (Cat #00-4505-51, Thermo Fisher Scientific) for 6 hr at a final concentration of 2 μM monensin and 3 μg/mL brefeldin after which they were collected and were processed for staining for flow cytometry.
Of note, no changes in the percentage of Ly6C+/Ly6G+ MDSCs in tumors between the two treatment conditions were observed (FIG. 10D). […] The addition of tumor conditioned media allows the TME to be partially mimicked where tumor derived factors influence the differentiation and polarization of macrophages. […] The polarized macrophages were subsequently co-cultured with sub-optimally activated T cells (CD3/CD28 and IL2) isolated from spleens of non-tumor bearing mice, for 72 hr following which they were treated with protein transport inhibitors (monensin and brefeldin) for 6 hr to prevent release of cytokines and chemokines.

[2] = E2 vs placebo, ex vivo PMA and ionomycin 4 hr

For `C[C@]12CC[C@@H]3c4ccc(O)cc4C[C@@H](CCCCCCCCC[S+]([O-])CCCC(F)(F)C(F)(F)F)[C@H]3[C@@H]1CC[C@@H]2O` (some centres unmarked) [fulvestrant], the “inflammatory macrophages (MHCII^hi CD206−)” value (YuMM5.2 tumors; E2 treated mice co-treated with fulvestrant) was “increase”, the tumor growth (YuMM5.2 tumors; fulvestrant 25 mg/kg, E2 supplemented mice) was “significantly reduced” and the “number of PD1+CD8+ T cells (exhausted T cells)” value (YuMM5.2 tumors; fulvestrant treatment of E2 treated mice) was “decrease”. For the same molecule, the “cytotoxic capabilities of tumor infiltrating T cells, Granzyme B (GZMB) expression” value (YuMM5.2 tumors; mouse, in vivo) was “increase”, the “E2-induced suppression of T cell proliferation” value ([1]; macrophages differentiated in 30% TCM, E2 (1 nM)+fulvestrant (100 nM)) was “reversed” and the “proliferation of T cells (CFSE dilution)” value ([1]; E2+fulvestrant) was “not affected”.
17β-estradiol [E2] was tested, and the “tumor promoting effects of E2, tumor cells co-mixed with BMDM (1:1)” value (YuMM5.2 tumors; BMDM from Esr1^f/f, LysMCre versus Esr1^f/f) was “significantly compromised”, the “number of PD1+CD8+ T cells (exhausted T cells)” value (YuMM5.2 tumors; E2 treatment) was “increased” and the “Granzyme B expression in CD8+ TILs” value (YuMM5.2 tumors; [2]) was “reduced expression”. The “IFNγ in CD8+ TILs” value (YuMM5.2 tumors; [2]) was “reduced expression”, the “PD1 expression on CD8+ TILs” value (YuMM5.2 tumors; [2]) was “significantly more” and the “activation markers CD44 and CD69 on CD8+ TILs” value (YuMM5.2 tumors; [2]) was “reduced expression”. For the same molecule, the tumor growth (YuMM5.2 tumors; E2 vs placebo, ovariectomized C57BL/6J) was “significantly increased”, the “infiltration of CD4+ FOXP3+ regulatory T cell subsets” value (YuMM5.2 tumors; E2 vs placebo, FIGS. 16D-16E B16F10 and YuMM5.2) was “not observed” and the tumor growth (YuMM5.2 tumors; Esr1^f/f and LysMCre control mice) was “increased”. The tumor growth (YuMM5.2 tumors; Esr1^f/f, LysMCre mice (myeloid ERα knockout)) was “not evident”, the “percentage of Ly6C+/Ly6G+ MDSCs in tumors” value (YuMM5.2 tumors; flow cytometry, E2 vs placebo) was “no changes” and the “M1 (proinflammatory macrophages) in tumor infiltrating immune cells” value (YuMM5.2 tumors; flow cytometry, Esr1^f/f animals) was “decrease”. For the same molecule, the “proliferation of T cells (CFSE)” value ([1]; BMDM from Esr1^f/f and Esr1^f/f, LysMCre differentiated in NM, DMSO or E2) was “No difference”, the “T cell proliferation (CFSE dilution)” value ([1]; macrophages differentiated in 30% TCM and E2) was “effectively suppressed” and the “proliferation of T cells (CFSE dilution)” value ([1]; E2) was “not affected”. The “expression of GZMB and IFNγ in T cells” value ([1]; macrophages differentiated in TCM, E2 1 nM vs DMSO) was “decreased expression” and the “expression of IFNγ and GZMB in T cells” value ([1]; macrophages in normal media (NM), E2 1 nM) was “did not display any change”.
